Patent US9695155B2, “Herbicidal substituted pyrimidinyloxy benzene compounds” (E. I. DU PONT DE NEMOURS AND COMPANY, priority 2013, dated 2017)

Key:
wheat [1] = test: Test A postemergence; assay type: in vivo, Triticum aestivum
Outline: (§1)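 Greenhouse pot test, loam/sand soil. Formulation: non-phytotoxic solvent mix plus surfactant. Pre: directed spray onto soil after sowing. Post: plants at 1–2 leaf, 2–10 cm. Rated visually vs untreated controls at ~10 d, 0 (no effect) to 100 (complete control).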

barnyardgrass [2] = test: Test A preemergence; assay type: in vivo, Echinochloa crus-galli
Outline: as §1

giant foxtail [3] = test: Test A postemergence; assay type: in vivo, Setaria faberii
Outline: as §1

giant foxtail [4] = test: Test A preemergence; assay type: in vivo, Setaria faberii
Outline: as §1

large (Lg) crabgrass [5] = test: Test A preemergence; assay type: in vivo, Digitaria sanguinalis
Source text: (§2) Seeds of plant species selected from barnyardgrass (Echinochloa crus-galli), kochia (Kochia scoparia), ragweed (common ragweed, Ambrosia elatior), Italian ryegrass (Lolium multiflorum), large (Lg) crabgrass (Digitaria sanguinalis), giant foxtail (Setaria faberii), morningglory (Ipomoea spp.), pigweed (Amaranthus retroflexus), velvetleaf (Abutilon theophrasti), wheat (Triticum aestivum), and corn (Zea mays) were planted into a blend of loam soil and sand and treated preemergence with a directed soil spray using test chemicals formulated in a non-phytotoxic solvent mixture which included a surfactant.
(§3) At the same time, plants selected from these crop and weed species and also blackgrass (Alopecurus myosuroides), and galium (catchweed bedstraw, Galium aparine) were planted in pots containing the same blend of loam soil and sand and treated with postemergence applications of test chemicals formulated in the same manner. Plants ranged in height from 2 to 10 cm and were in the one- to two-leaf stage for the postemergence treatment. Treated plants and untreated controls were maintained in a greenhouse for approximately 10 days, after which time all treated plants were compared to untreated controls and visually evaluated for injury. Plant response ratings, summarized in Table A, are based on a 0 to 100 scale where 0 is no effect and 100 is complete control. A dash (-) response means no test result.

large (Lg) crabgrass [6] = test: Test A postemergence; assay type: in vivo, Digitaria sanguinalis
Source text: as §2, §3

wheat [7] = test: Test A preemergence; assay type: in vivo, Triticum aestivum
Outline: as §1

corn [8] = test: Test A preemergence; assay type: in vivo, Zea mays
Source text: as §2, §3

barnyardgrass [9] = test: Test B flooded paddy test; assay type: in vivo, Echinochloa crus-galli; details: Flood, 250 g ai/ha; 0 to 100 scale where 0 is no effect and 100 is complete control
Method: (§4) Plant species in the flooded paddy test selected from rice (Oryza sativa), sedge, umbrella (small-flower umbrella sedge, Cyperus difformis), (Heteranthera limosa), and barnyardgrass (Echinochloa crus-galli) were grown to the 2-leaf stage for testing. At time of treatment, test pots were flooded to 3 cm above the soil surface, treated by application of test compounds directly to the paddy water, and then maintained at that water depth for the duration of the test. Treated plants and controls were maintained in a greenhouse for 13 to 15 days, after which time all species were compared to controls and visually evaluated. Plant response ratings, summarized in Table B, are based on a scale of 0 to 100 where 0 is no effect and 100 is complete control. A dash (-) response means no test result.

morningglory [10] = test: Test A postemergence; assay type: in vivo, Ipomoea spp.
Outline: as §1

pigweed [11] = test: Test A postemergence; assay type: in vivo, Amaranthus retroflexus
Outline: as §1

velvetleaf [12] = test: Test A preemergence; assay type: in vivo, Abutilon theophrasti
Source text: as §2, §3

barnyardgrass [13] = test: Test A postemergence; assay type: in vivo, Echinochloa crus-galli
Outline: as §1

velvetleaf [14] = test: Test A postemergence; assay type: in vivo, Abutilon theophrasti
Source text: as §2, §3

rice = test: Test B flooded paddy test; assay type: in vivo, Oryza sativa; details: Flood, 250 g ai/ha; 0 to 100 scale where 0 is no effect and 100 is complete control
Method: as §4

Heteranthera limosa = test: Test B flooded paddy test; assay type: in vivo; details: Flood, 250 g ai/ha; 0 to 100 scale where 0 is no effect and 100 is complete control
Method: as §4

corn [15] = test: Test A postemergence; assay type: in vivo, Zea mays
Outline: as §1

sedge, umbrella = test: Test B flooded paddy test; assay type: in vivo, Cyperus difformis; details: Flood, 250 g ai/ha; 0 to 100 scale where 0 is no effect and 100 is complete control
Method: as §4

morningglory [16] = test: Test A preemergence; assay type: in vivo, Ipomoea spp.
Outline: as §1

pigweed [17] = test: Test A preemergence; assay type: in vivo, Amaranthus retroflexus
Source text: as §2, §3

[18] = 125 g ai/ha, 0 to 100 scale where 0 is no effect and 100 is complete control
[19] = 500 g ai/ha, 0 to 100 scale, 0 no effect, 100 complete control
[20] = 500 g ai/ha, 0 to 100 scale, 0 no effect, 100 complete control, approx. 10 days

Row | Structure (SMILES) | Plant response rating, Wheat (wheat [1]; [18]) | Plant response rating, Wheat (wheat [1]; [19]) | Barnyardgrass plant response rating (barnyardgrass [2]; [20]) | Plant response rating, Foxtail, Giant (giant foxtail [3]; [18]) | Plant response rating, Foxtail, Giant (giant foxtail [3]; [19]) | Foxtail, Giant plant response rating (giant foxtail [4]; [20]) | Crabgrass, Large plant response rating (large (Lg) crabgrass [5]; [20]) | Plant response rating, Crabgrass, Large (large (Lg) crabgrass [6]; [18]) | Plant response rating, Crabgrass, Large (large (Lg) crabgrass [6]; [19]) | Wheat plant response rating (wheat [7]; [20]) | Corn plant response rating (corn [8]; [20]) | Plant response rating, Barnyardgrass (barnyardgrass [9]) | Plant response rating, Pigweed (pigweed [11]; [18]) | Plant response rating, Pigweed (pigweed [11]; [19]) | Velvetleaf plant response rating (velvetleaf [12]; [20]) | Plant response rating, Barnyardgrass (barnyardgrass [13]; [18]) | Plant response rating, Barnyardgrass (barnyardgrass [13]; [19]) | Plant response rating, Velvetleaf (velvetleaf [14]; [18]) | Plant response rating, Velvetleaf (velvetleaf [14]; [19]) | Plant response rating, Rice (rice) | further results
1 | Fc1cnc(Oc2ccccc2-n2cc(Cl)cn2)nc1 [Compound 11] | 0 | 20 | 100 | 70 | 90 | 100 | 100 | 70 | 90 | 0 | 30 | 0 | 100 | 100 | 100 | 10 | 90 | 100 | 100 | 0 | Barnyardgrass plant response rating (barnyardgrass [2]; [18]): 70; Foxtail, Giant plant response rating (giant foxtail [4]; [18]): 90; Crabgrass, Large plant response rating (large (Lg) crabgrass [5]; [18]): 90; Wheat plant response rating (wheat [7]; [18]): 0; Corn plant response rating (corn [8]; [18]): 0; Plant response rating, Morningglory (morningglory [10]; [18]): 60; Plant response rating, Morningglory (morningglory [10]; [19]): 100; Velvetleaf plant response rating (velvetleaf [12]; [18]): 90; Plant response rating, Ducksalad (Heteranthera limosa): 50; Plant response rating, Corn (corn [15]; [18]): 10; Plant response rating, Corn (corn [15]; [19]): 50; Plant response rating, Sedge, Umbrella (sedge, umbrella): 0; Morningglory plant response rating (morningglory [16]; [18]): 30; Morningglory plant response rating (morningglory [16]; [20]): 60; Pigweed plant response rating (pigweed [17]; [18]): 90; Pigweed plant response rating (pigweed [17]; [20]): 100
2 | Cc1nn(-c2ccccc2Oc2ncc(Cl)cn2)cc1Br [Compound 37] | 0 | 0 | 10 | 0 | 0 | 30 | 80 | 0 | 0 | 0 | 0 | 0 | 0 | 10 | 10 | 0 | 0 | 20 | 40 | 0 | Plant response rating, Barnyardgrass (barnyardgrass [2]; [18]): 0; Plant response rating, Foxtail, Giant (giant foxtail [4]; [18]): 10; Plant response rating, Crabgrass, Large (large (Lg) crabgrass [5]; [18]): 10; Plant response rating, Wheat (wheat [7]; [18]): 0; Plant response rating, Corn (corn [8]; [18]): 0; Plant response rating, Velvetleaf (velvetleaf [12]; [18]): 10; Plant response rating, Ducksalad (Heteranthera limosa): 0; Plant response rating, Corn (corn [15]; [18]): 0; Plant response rating, Corn (corn [15]; [19]): 0; Plant response rating, Sedge, Umbrella (sedge, umbrella): 0; Plant response rating, Morningglory (morningglory [16]; [18]): 0; Morningglory plant response rating (morningglory [16]; [20]): 0; Plant response rating, Pigweed (pigweed [17]; [18]): 0; Pigweed plant response rating (pigweed [17]; [20]): 0
3 | Cc1nn(-c2ccccc2Oc2ncc(Cl)cn2)cc1Cl [Compound 38] | 0 | 0 | 0 | 0 | 0 | 20 | 40 | 0 | 10 | 0 | 0 | 0 | 0 | 10 | 10 | 0 | 0 | 10 | 20 | 0 | Plant response rating, Barnyardgrass (barnyardgrass [2]; [18]): 0; Plant response rating, Foxtail, Giant (giant foxtail [4]; [18]): 0; Plant response rating, Crabgrass, Large (large (Lg) crabgrass [5]; [18]): 0; Plant response rating, Wheat (wheat [7]; [18]): 0; Plant response rating, Corn (corn [8]; [18]): 0; Plant response rating, Velvetleaf (velvetleaf [12]; [18]): 0; Plant response rating, Ducksalad (Heteranthera limosa): 0; Plant response rating, Corn (corn [15]; [18]): 0; Plant response rating, Corn (corn [15]; [19]): 0; Plant response rating, Sedge, Umbrella (sedge, umbrella): 30; Plant response rating, Morningglory (morningglory [16]; [18]): 0; Morningglory plant response rating (morningglory [16]; [20]): 0; Plant response rating, Pigweed (pigweed [17]; [18]): 0; Pigweed plant response rating (pigweed [17]; [20]): 0
4 | Cc1nn(-c2ccccc2Oc2ncc(Cl)cn2)cc1Cl [Compound 39] | 0 | 0 | 10 | 0 | 0 | 50 | 90 | 0 | 10 | 0 | 0 | 0 | 10 | 40 | 20 | 0 | 0 | 20 | 30 | 0 | Plant response rating, Barnyardgrass (barnyardgrass [2]; [18]): 0; Plant response rating, Foxtail, Giant (giant foxtail [4]; [18]): 10; Plant response rating, Crabgrass, Large (large (Lg) crabgrass [5]; [18]): 10; Plant response rating, Wheat (wheat [7]; [18]): 0; Plant response rating, Corn (corn [8]; [18]): 0; Plant response rating, Velvetleaf (velvetleaf [12]; [18]): 10; Plant response rating, Ducksalad (Heteranthera limosa): 50; Plant response rating, Corn (corn [15]; [18]): 0; Plant response rating, Corn (corn [15]; [19]): 10; Plant response rating, Sedge, Umbrella (sedge, umbrella): 30; Plant response rating, Morningglory (morningglory [16]; [18]): 0; Morningglory plant response rating (morningglory [16]; [20]): 0; Plant response rating, Pigweed (pigweed [17]; [18]): 0; Pigweed plant response rating (pigweed [17]; [20]): 0
5 | Cc1ccn(-c2ccccc2Oc2ncc(Cl)cn2)n1 [Compound 36] | 0 | 0 | 0 | 0 | 0 | 20 | 70 | 0 | 10 | 0 | 0 | 0 | 0 | 20 | 20 | 0 | 0 | 20 | 70 | 0 | Plant response rating, Barnyardgrass (barnyardgrass [2]; [18]): 0; Plant response rating, Foxtail, Giant (giant foxtail [4]; [18]): 0; Plant response rating, Crabgrass, Large (large (Lg) crabgrass [5]; [18]): 0; Plant response rating, Wheat (wheat [7]; [18]): 0; Plant response rating, Corn (corn [8]; [18]): 0; Plant response rating, Velvetleaf (velvetleaf [12]; [18]): 0; Plant response rating, Ducksalad (Heteranthera limosa): 0; Plant response rating, Corn (corn [15]; [18]): 0; Plant response rating, Corn (corn [15]; [19]): 0; Plant response rating, Sedge, Umbrella (sedge, umbrella): 0; Plant response rating, Pigweed (pigweed [17]; [18]): 0; Pigweed plant response rating (pigweed [17]; [20]): 20
